Source: PMC12396409, “Screening and hit evaluation of a microbial metabolite library against the pathogenic Plasmodium falciparum and Toxoplasma gondii parasites” (International Journal for Parasitology: Drugs and Drug …, 2025)
Read-outs that look alike come from different tables or passages of the source.

Tests used:
[1] = tested on: P. falciparum 3D7 parasites; test: P. falciparum growth inhibition assay, 1-cycle (72 h treatment), SYBR DNA staining (library screen at 2 μg/mL and dose-response); type: cell-based, Plasmodium falciparum; conditions: P. falciparum, 72 h; for activity at 2 µg/mL: Plasmodium falciparum
[2] = tested on: P. falciparum 3D7 parasites; test: P. falciparum growth inhibition assay, 2-cycle (120 h treatment), delayed-death screen and dose-response; type: cell-based, Plasmodium falciparum; conditions: P. falciparum, 120 h; for activity at 2 µg/mL: Plasmodium falciparum
[3] = tested on: T. gondii RH strain (RH-Tub-eYFP) tachyzoites; test: microbe, parasite or virus in culture; type: cell-based, Toxoplasma gondii; conditions: T. gondii, 72 h; for percent parasite growth at 2 µg/mL: Toxoplasma gondii
[4] = 3D7, 72 h, parasite screen 2 μg/mL, % growth, replicate 1, read-out: Pf_72h_%Growth_Rep1
[5] = 3D7, 72 h, parasite screen 2 μg/mL, % growth, replicate 2, read-out: Pf_72h_%Growth_Rep2
[6] = 3D7, 120 h, parasite screen 2 μg/mL, % growth, replicate 1, read-out: Pf_120h_%Growth_Rep1
[7] = 3D7, 120 h, parasite screen 2 μg/mL, % growth, replicate 2, read-out: Pf_120h_%Growth_Rep2
[8] = parasite screen 2 μg/mL, % growth, replicate 1, read-out: Tg_72h_%Growth_Rep1
[9] = parasite screen 2 μg/mL, % growth, replicate 2, read-out: Tg_72h_%Growth_Rep2
[10] = parasite screen 2 μg/mL, % growth, replicate 1
[11] = parasite screen 2 μg/mL, % growth, replicate 2
[12] = 3D7, screen at 2 μg/mL, replicate 1, read-out: Pf_72h_%Growth_Rep1
[13] = 3D7, screen at 2 μg/mL, replicate 2, read-out: Pf_72h_%Growth_Rep2
[14] = 3D7, screen at 2 μg/mL, replicate 1, read-out: Pf_120h_%Growth_Rep1
[15] = 3D7, screen at 2 μg/mL, replicate 2, read-out: Pf_120h_%Growth_Rep2
[16] = screen at 2 μg/mL, replicate 1, read-out: Tg_72h_%Growth_Rep1
[17] = screen at 2 μg/mL, replicate 2, read-out: Tg_72h_%Growth_Rep2

SMILES | Pf_72h_%Growth_Rep1 ([1]; screen at 2 μg/mL, replicate 1) [%] | Pf_72h_%Growth_Rep2 ([1]; screen at 2 μg/mL, replicate 2) [%] | Pf_120h_%Growth_Rep1 ([2]; screen at 2 μg/mL, replicate 1) [%] | Pf_120h_%Growth_Rep2 ([2]; screen at 2 μg/mL, replicate 2) [%] | Tg_72h_%Growth_Rep1 ([3]; screen at 2 μg/mL, replicate 1) [%] | Tg_72h_%Growth_Rep2 ([3]; screen at 2 μg/mL, replicate 2) [%] | other results
CO[C@H]1/C=C\C=C(\C)C[C@H](C)[C@H](O)[C@H](C)/C=C(C)\C=C(\C)C(=O)O[C@@H]1[C@@H](C)[C@@H](O)[C@H](C)[C@@]1(O)C[C@@H](OC(=O)/C=C/C(=O)O)[C@H](C)[C@@H](C(C)C)O1 [TS 155-2] | 3.32 | -2.51 | 23.01 | 6.11 | 1.68 | -0.35 | 
C=CC[C@@H]1/C=C(\C)C[C@H](C)C[C@H](OC)[C@H]2O[C@@](O)(C(=O)C(=O)N3CCCC[C@H]3C(=O)O[C@H](/C(C)=C/[C@@H]3CC[C@@H](O)[C@H](OC)C3)[C@H](C)[C@@H](O)CC1=O)[C@H](C)C[C@@H]2OC [Tacrolimus] |  |  |  |  |  |  | activity at 2 µg/mL [1, 4]: 56.9%; activity at 2 µg/mL [1, 5]: 41.7%; activity at 2 µg/mL [2, 6]: 49.7%; activity at 2 µg/mL [2, 7]: 41%; percent parasite growth at 2 µg/mL [3, 8]: 102%; percent parasite growth at 2 µg/mL [3, 9]: 79.4%
CC(=O)N[C@H]1[C@H](O[C@@H]2c3ccc(c(Cl)c3)Oc3cc4cc(c3O[C@@H]3O[C@H](CO)[C@@H](O)[C@H](O)[C@H]3NC(=O)CCCCCCC(C)C)Oc3ccc(cc3Cl)C[C@H]3NC(=O)[C@H](N)c5ccc(O)c(c5)Oc5cc(O)cc(c5)[C@H](NC3=O)C(=O)N[C@H]4C(=O)N[C@H]3C(=O)N[C@@H]2C(=O)N[C@H](C(=O)O)c2cc(O)cc(O[C@H]4O[C@H](CO)[C@@H](O)[C@H](O)[C@@H]4O)c2-c2cc3ccc2O)O[C@H](CO)[C@@H](O)[C@@H]1O [Teicoplanin A2-2] |  |  |  |  |  |  | Pf_72h_%Growth_Rep1 [1, 10]: 72.71%; Pf_72h_%Growth_Rep2 [1, 11]: 85.08%; Pf_120h_%Growth_Rep1 [2, 10]: 148.39%; Pf_120h_%Growth_Rep2 [2, 11]: 93.23%; Tg_72h_%Growth_Rep1 [3, 10]: 90.69%; Tg_72h_%Growth_Rep2 [3, 11]: 106.25%
CCCCCCCCCC(=O)N[C@H]1[C@H](Oc2c3cc4cc2Oc2ccc(cc2Cl)[C@@H](O[C@@H]2O[C@H](CO)[C@@H](O)[C@H](O)[C@H]2NC(C)=O)[C@@H]2NC(=O)[C@H](NC(=O)[C@@H]4NC(=O)[C@H]4NC(=O)[C@H](Cc5ccc(c(Cl)c5)O3)NC(=O)[C@H](N)c3ccc(O)c(c3)Oc3cc(O)cc4c3)c3ccc(O)c(c3)-c3c(O[C@H]4O[C@H](CO)[C@@H](O)[C@H](O)[C@@H]4O)cc(O)cc3[C@@H](C(=O)O)NC2=O)O[C@H](CO)[C@@H](O)[C@@H]1O [Teicoplanin A2-3] |  |  |  |  |  |  | activity at 2 µg/mL [1, 4]: 88.9%; activity at 2 µg/mL [1, 5]: 128%; activity at 2 µg/mL [2, 6]: 110%; activity at 2 µg/mL [2, 7]: 97%; percent parasite growth at 2 µg/mL [3, 8]: 112%; percent parasite growth at 2 µg/mL [3, 9]: 84.1%
CCC(C)CCCCCCC(=O)N[C@H]1[C@H](Oc2c3cc4cc2Oc2ccc(cc2Cl)[C@@H](O[C@@H]2O[C@H](CO)[C@@H](O)[C@H](O)[C@H]2NC(C)=O)[C@@H]2NC(=O)[C@H](NC(=O)[C@@H]4NC(=O)[C@H]4NC(=O)[C@@H](Cc5ccc(c(Cl)c5)O3)NC(=O)[C@H](N)c3ccc(O)c(c3)Oc3cc(O)cc4c3)c3ccc(O)c(c3)-c3c(O[C@H]4O[C@H](CO)[C@@H](O)[C@H](O)[C@@H]4O)cc(O)cc3[C@@H](C(=O)O)NC2=O)O[C@H](CO)[C@@H](O)[C@@H]1O (stereo partly drawn) [Teicoplanin A2-4] | 81.32 | 78.26 | 64.36 | 53.42 | 112.03 | 79.02 | 
CC(=O)N[C@H]1[C@H](O[C@@H]2c3ccc(c(Cl)c3)Oc3cc4cc(c3O[C@@H]3O[C@H](CO)[C@@H](O)[C@H](O)[C@H]3NC(=O)CCCCCCCC(C)C)Oc3ccc(cc3Cl)C[C@H]3NC(=O)[C@H](N)c5ccc(O)c(c5)Oc5cc(O)cc(c5)[C@H](NC3=O)C(=O)N[C@H]4C(=O)N[C@H]3C(=O)N[C@@H]2C(=O)N[C@H](C(=O)O)c2cc(O)cc(O[C@H]4O[C@H](CO)[C@@H](O)[C@H](O)[C@@H]4O)c2-c2cc3ccc2O)O[C@H](CO)[C@@H](O)[C@@H]1O [Teicoplanin A2-5] | 86.27 | 115.48 | 86.61 | 122.81 | 105.42 | 91.45 | 
CC(=O)N[C@H]1[C@H](O[C@@H]2c3ccc(c(Cl)c3)Oc3cc4cc(c3O)Oc3ccc(cc3Cl)C[C@H]3NC(=O)[C@H](N)c5ccc(O)c(c5)Oc5cc(O)cc(c5)[C@H](NC3=O)C(=O)N[C@H]4C(=O)N[C@H]3C(=O)N[C@@H]2C(=O)N[C@H](C(=O)O)c2cc(O)cc(O[C@H]4O[C@H](CO)[C@@H](O)[C@H](O)[C@@H]4O)c2-c2cc3ccc2O)O[C@H](CO)[C@@H](O)[C@@H]1O [Teicoplanin A3-1] | 83.89 | 89.40 | 162.68 | 89.82 | 92.73 | 87.18 | 
C=C[C@@](C)(CCC=C(C)C)c1ccc2c3c(c[nH]c13)C[C@@H](CO)NC(=O)[C@H](C(C)C)N2C [Teleocidin A1] | 6.74 | -5.43 | 8.14 | 11.61 | 75.89 | 83.10 | 
CC[C@H]1OC(=O)[C@H](C)C(=O)[C@H](C)[C@@H](O[C@@H]2O[C@H](C)C[C@H](N(C)C)[C@H]2O)[C@](C)(OC)C[C@@H](C)C(=O)[C@H](C)[C@H]2N(CCCCn3cnc(-c4cccnc4)c3)C(=O)O[C@]12C [Telithromycin] |  |  |  |  |  |  | activity at 2 µg/mL [1, 12]: 42.3%; activity at 2 µg/mL [1, 13]: 40.6%; activity at 2 µg/mL [2, 14]: 50.8%; activity at 2 µg/mL [2, 15]: 9.42%; percent parasite growth at 2 µg/mL [3, 16]: 56.9%; percent parasite growth at 2 µg/mL [3, 17]: 55.2%
CO[C@H]1C[C@@H]2CC[C@@H](C)[C@@](O)(O2)C(=O)C(=O)N2CCCC[C@H]2C(=O)O[C@H]([C@H](C)C[C@@H]2CC[C@@H](OC(=O)C(C)(CO)CO)[C@H](OC)C2)CC(=O)[C@H](C)/C=C(\C)[C@@H](O)[C@@H](OC)C(=O)[C@H](C)C[C@H](C)/C=C/C=C/C=C/1C [Temsirolimus] |  |  |  |  |  |  | activity at 2 µg/mL [1, 12]: 59.1%; activity at 2 µg/mL [1, 13]: 47.4%; activity at 2 µg/mL [2, 14]: 61.2%; activity at 2 µg/mL [2, 15]: 46.5%; percent parasite growth at 2 µg/mL [3, 16]: 97%; percent parasite growth at 2 µg/mL [3, 17]: 76.6%
CC[C@@H](C)/C=C(C)/C=C/C(=O)c1c(O)c(-c2ccc(O)cc2)cn(O)c1=O [Tenellin] | 58.91 | 96.26 | 76.98 | 107.08 | -2.05 | 1.18 | 
COc1cc(-c2oc3c(OC)c(OC)cc(O)c3c(=O)c2OC)ccc1O [Ternatin] |  |  |  |  |  |  | activity at 2 µg/mL [1, 12]: 64%; activity at 2 µg/mL [1, 13]: 81%; activity at 2 µg/mL [2, 14]: 137%; activity at 2 µg/mL [2, 15]: 71.9%; percent parasite growth at 2 µg/mL [3, 16]: 71.2%; percent parasite growth at 2 µg/mL [3, 17]: 66.7%
CC(C)(O)[C@H]1O[C@H]2CC[C@@]3(C)[C@@](O)(CC[C@H]4Cc5c([nH]c6ccccc56)[C@@]43C)[C@]23O[C@@H]3[C@@H]1O [Terpendole I] | 66.72 | 80.63 | 141.22 | 87.55 | 89.20 | 95.24 | 
